Patent US20090318565A1, “Novel Compositions for the Enhancement of the Anti-oxidant Potential of Hydrogenated Curcuminoids or Combinations Thereof” (priority 2008, published 2009)
Values after ≈ are worked out from the molar mass of the structure shown.

Experiments:
[1] = system: Swiss 3T3 mouse fibroblast cells; test: ROS scavenging assay (DCFH-DA dye, oxidation initiated by FeSO4); format: cell-based; conditions: for IC50: Mus musculus, Swiss-3T3, DCFH-DA, FeSO4, 1 hr at 37° C., fluorescence 485/520 nm, called SC50, read-out: % Inhibition (IC50 μg/ml) ROS scavenging in Swiss 3T3 fibroblast cell line
Protocol: The DPPH free radical scavenging activity is studied based on the stable free radical 1,1-diphenyl-2-picryl hydrazyl radical (DPPH) which, in presence of an antioxidant in organic/aqueous organic media is bleached and the decrease of absorbance of DPPH is measured spectrophotometrically at 516 nm. The assay mixture containing DPPH methanolic solution & methanolic solutions of various concentrations of the antioxidant is incubated at 37 degree C. for 30 minutes. The reduction in absorbance is measured spectrophotometrically at 516 nm. The free radical scavenging activity is expressed as SC50, the concentration of the sample required for 50% of the free radical to be scavenged. The ROS scavenging assay is based on a cell permeable, non-fluorescent dye, de-esterified DCFH-DA (dichloro fluorescein diacetate) being converted to dichlorofluorescein upon oxidation by the reactive oxygen species. […] Swiss 3T3 mouse fibroblast cells are cultured in DMEM medium with 10% FBS. 1×10^5 cells per well are plated into a 96 well black plate. After treatment with varying concentrations of the samples, the cells are exposed to DCFH-DA dye and oxidation initiated by FeSO4. […] The fluorescence intensity is directly proportional to the ROS scavenging activity of the samples. The activity is expressed as SC50 which is the concentration required for 50% scavenging of ROS.

[2] = DPPH free radical scavenging assay; format: biochemical; conditions: methanolic solution, 37 degree C. for 30 minutes, absorbance at 516 nm; called SC50
Protocol: The DPPH free radical scavenging activity is studied based on the stable free radical 1,1-diphenyl-2-picryl hydrazyl radical (DPPH) which, in presence of an antioxidant in organic/aqueous organic media is bleached and the decrease of absorbance of DPPH is measured spectrophotometrically at 516 nm. The assay mixture containing DPPH methanolic solution & methanolic solutions of various concentrations of the antioxidant is incubated at 37 degree C. for 30 minutes. The reduction in absorbance is measured spectrophotometrically at 516 nm. The free radical scavenging activity is expressed as SC50, the concentration of the sample required for 50% of the free radical to be scavenged. The ROS scavenging assay is based on a cell permeable, non-fluorescent dye, de-esterified DCFH-DA (dichloro fluorescein diacetate) being converted to dichlorofluorescein upon oxidation by the reactive oxygen species. The scavenging activity of sample is indicated by the decrease in fluorescence (wavelength 485/520 nm). Swiss 3T3 mouse fibroblast cells are cultured in DMEM medium with 10% FBS. […] After incubation for 1 hr at 37° C., the fluorescence reading is taken at wavelength 485/520 nm (Fluostar optima microplate reader). The fluorescence intensity is directly proportional to the ROS scavenging activity of the samples. The activity is expressed as SC50 which is the concentration required for 50% scavenging of ROS.

Row | Compound | pro-oxidant properties of hydrogenated derivative against bisdemethoxycurcumin ([1]; upon hydrogenation) | SC50 [2] | IC50 [1] | enhancement of anti-oxidant properties upon hydrogenation (ROS scavenging activity) ([1]; hydrogenated derivative against demethoxycurcumin) | anti-oxidant activity of hydrogenated derivative against curcumin ([1]; upon hydrogenation)
1 | O=C(CCc1ccc(O)cc1)CC(=O)CCc1ccc(O)cc1 [STR#1, 1,7-Bis(4-hydroxyphenyl)-3,5-heptanedione] | enhanced |  |  |  | 
2 | COc1cc(CCC(=O)CC(=O)CCc2ccc(O)cc2)ccc1O [STR#V, 1-(4-hydroxy-3-methoxyphenyl)-7-(4-hydroxyphenyl)-3,5-heptanedione] |  | 3.0 µg/mL | 4.5 µg/mL (≈ 13.1 µM) | about 10 fold | 
3 | COc1cc(CCC(=O)CC(=O)CCc2ccc(O)c(OC)c2)ccc1O [STR#II, 1,7-Bis(4-hydroxy-3-methoxyphenyl)-3,5-heptanedione] |  |  | 1.35 µg/mL (≈ 3.62 µM) |  | enhanced
